Legend:
human SCD1 = human SCD1 (Homo sapiens (Human), UniProt O00767); assay: Yeast growth assay, strain expressing human SCD1 as the sole desaturase (reduced growth as surrogate for SCD inhibition); format: cell-based; conditions: yeast with OLE1 deleted expressing human SCD1 from a plasmid; growth read as OD600 after 40 h at 30° C.; top drug concentration 33.3 μM
In short: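 Yeast lacking OLE1 depend on plasmid-borne human SCD1 or SCD5 and are tested in SD-Ura medium without oleic/palmitoleic acid or Tween.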

human SCD5 = human SCD5 (Homo sapiens (Human), UniProt Q86SK9); assay: Yeast growth assay, strain expressing human SCD5 as the sole desaturase (reduced growth as surrogate for SCD inhibition); format: cell-based; conditions: yeast with OLE1 deleted expressing human SCD5 from a plasmid; growth read as OD600 after 40 h at 30° C.; top drug concentration 33.3 μM
human SCD5, sequence (Q86SK9 whole entry): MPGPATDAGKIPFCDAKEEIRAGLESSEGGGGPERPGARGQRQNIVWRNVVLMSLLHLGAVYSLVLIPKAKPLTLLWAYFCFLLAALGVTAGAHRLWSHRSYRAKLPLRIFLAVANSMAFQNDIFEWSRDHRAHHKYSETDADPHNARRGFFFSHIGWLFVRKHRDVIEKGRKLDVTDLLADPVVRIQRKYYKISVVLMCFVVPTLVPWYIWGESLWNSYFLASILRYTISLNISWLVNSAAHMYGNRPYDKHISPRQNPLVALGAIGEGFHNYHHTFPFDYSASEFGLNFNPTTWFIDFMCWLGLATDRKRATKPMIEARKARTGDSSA
Experimental: Strains expressing SCD1 or SCD5 as the sole desaturase, the human SCD1 and SCD5 genes were used to evaluate inhibition of SCD1/SCD5 using reduced growth as a surrogate for SCD inhibition. These yeast strains express human SCD1 or SCD5 from a plasmid harbored in a strain in which the yeast OLE1 gene is deleted.
All compound profiling experiments were performed using the same basic protocol. Yeast were cultured using standard techniques in complete synthetic media lacking uracil and containing yeast nitrogen base supplemented with 2% (w/v) glucose (SD-Ura) Starter cultures were inoculated in 3 mL SD-Ura media containing 0.01% tween and 0.2 mM palmitoleic and oleic acid. Cultures were incubated overnight in a 30° C. shaker incubator (225 rpm). Saturated morning cultures were centrifuged, washed in SD-Ura media lacking TWEEN-20 and fatty acids, and then diluted 1:20 in fresh SD-Ura media also lacking TWEEN-20 and fatty acids.
Compound administration was performed in two separate steps. First, 15 μL of SD-Ura was dispensed into clear 384-well assay plates using a MULTIDROP™ Combi reagent dispenser. […] The cultures described above were centrifuged and washed with media lacking TWEEN-20 or oleic and palmitoleic acids.
After yeast delivery, assay plates were incubated under humidified conditions at 30° C. for 40 h. Yeast growth was monitored by reading the OD600 of each well using a microplate reader (Perkin Elmer EnVision™).

human SCD1, sequence (O00767 whole entry): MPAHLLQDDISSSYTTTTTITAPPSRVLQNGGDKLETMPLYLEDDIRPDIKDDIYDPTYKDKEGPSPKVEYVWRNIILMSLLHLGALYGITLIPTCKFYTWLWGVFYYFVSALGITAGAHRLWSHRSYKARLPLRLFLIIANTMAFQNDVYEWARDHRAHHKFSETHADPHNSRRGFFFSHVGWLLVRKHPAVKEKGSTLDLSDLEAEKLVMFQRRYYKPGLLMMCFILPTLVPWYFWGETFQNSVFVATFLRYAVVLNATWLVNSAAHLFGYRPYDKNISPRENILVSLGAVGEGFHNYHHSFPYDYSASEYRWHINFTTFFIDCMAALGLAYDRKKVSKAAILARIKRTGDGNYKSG

IC50 (human SCD1) | IC50 (human SCD5) | SMILES
> 45 µM | 39.2 µM | Cc1nn(C)c2cc(-c3cc(CN4C(=O)OCC4c4ccccc4)no3)ccc12 (stereo not shown) [Compound 273]
> 45 µM | > 45 µM | O=C(Nc1cn(Cc2ccccc2)nc1C(F)(F)F)c1cc(-c2ccccc2)on1 [Compound 82]
> 45 µM | > 45 µM | O=C(Nc1cnn(Cc2ccccc2Cl)c1)c1cc(-c2cccc3cn(C4COC4)nc23)on1 [Compound 92]
0.28 µM | 1.4 µM | O=C(c1cc(-c2ccco2)on1)N1CC(Oc2ccccc2)C1 [Compound 206, [5-(2-furyl)isoxazol-3-yl]-(3-phenoxyazetidin-1-yl)methanone]
> 45 µM | 4.16 µM | O=C(c1cc(-c2ccccc2)on1)N1CCC(Oc2ccccc2)CC1 [Compound 288, (4-phenoxy-1-piperidyl)-(5-phenylisoxazol-3-yl)methanone]
> 45 µM | > 45 µM | O=C(c1cc(-c2ccccc2)on1)N1CCC(c2ccccc2F)C1 (stereo not shown) [Compound 335]
> 45 µM | > 45 µM | Cc1c(NC(=O)c2cc(-c3ccco3)on2)cnn1Cc1ccc(Cl)c(Cl)c1 [Compound 21]
40 µM | > 45 µM | O=C(c1cc(-c2ccn3ncnc3c2)on1)N1CCC[C@H]1c1ccccc1 [Compound 432]
5.32 µM | 4.96 µM | O=C(Nc1cnn(Cc2ccccc2)c1)c1cc(-c2ccncc2Cl)on1 [Compound 134, N-(1-benzyl-1H-pyrazol-4-yl)-5-(3-chloropyridin-4-yl)isoxazole-3-carboxamide]
> 45 µM | 8.68 µM | O=C(c1cc(-c2ccc3c(c2)OCO3)on1)N1CCN(c2cc(F)ccc2Cl)CC1 [Compound 299, [5-(1,3-benzodioxol-5-yl)isoxazol-3-yl]-[4-(2-chloro-5-fluoro-phenyl)piperazin-1-yl]methanone]
5.8 µM | > 45 µM | CC(C)(C)OC(=O)Nc1cc(C(=O)Nc2cnn(Cc3ccccc3)c2)no1 [Compound 181]
> 45 µM | > 45 µM | N#Cc1ccc(CN(C(=O)c2cc(-c3ccccc3)on2)c2cnn(Cc3ccc(C#N)cc3)c2)cc1 [Compound 47]
> 45 µM | > 45 µM | O=C(c1cc(-c2ccc3c(c2)OCO3)on1)N1CCN(c2ccc(F)cc2)CC1 [Compound 279]
> 45 µM | > 45 µM | O=C(Nc1cnnc(Oc2ccccc2)c1)c1cc(-c2ccccc2)on1 [Compound 311]
> 45 µM | > 45 µM | Cc1nn(C)c2cc(-c3cc(C(=O)N4CCN(c5ccccc5)CC4)no3)ccc12 [Compound 278]
> 45 µM | > 45 µM | O=C(c1ccccc1)N1CCN(C(=O)c2cc(-c3ccc4c(c3)OCO4)on2)CC1 [Compound 281]
> 45 µM | 7.15 µM | Cc1nn(Cc2ccc(Cl)c(Cl)c2)c(C)c1NC(=O)c1cc(-c2ccco2)on1 [Compound 3, N-(1-(3,4-dichlorobenzyl)-3,5-dimethyl-1H-pyrazol-4-yl)-5-(furan-2-yl)isoxazole-3-carboxamide]
> 45 µM | > 45 µM | O=C(c1cc(-c2ccc3c(c2)OCO3)on1)N1CCCC1c1cnccn1 (stereo not shown) [Compound 418]
> 45 µM | 6.41 µM | O=C(c1cc(-c2ccccc2)on1)N1CC2(C=C(c3ccccc3)C2)C1 [Compound 225, (6-phenyl-2-azaspiro[3.3]hept-6-en-2-yl)-(5-phenylisoxazol-3-yl)methanone]
> 45 µM | > 45 µM | Cc1nnc(-c2cc(C(=O)Nc3cnn(Cc4cccc(F)c4)c3)no2)o1 [Compound 179]
> 45 µM | > 45 µM | CN(C)CCC(c1ccccc1)n1cc(NC(=O)c2cc(-c3ccccc3)on2)cn1 (stereo not shown) [Compound 65]

IC50 (human SCD1) | IC50 (human SCD5) | SMILES
32.2 µM | > 45 µM | COc1ccc(C2CCCN2C(=O)c2cc(-c3ccc(OC)c(OC)c3)on2)cc1 (stereo not shown) [Compound 374]
> 45 µM | > 45 µM | O=C(c1cc(-c2ccc3c(c2)OCO3)on1)N1CCCC1c1ccccn1 (stereo not shown) [Compound 361]
0.264 µM | 0.305 µM | COc1ccc(-c2cc(C(=O)N3CC(c4ccccc4)C3)no2)nc1 [Compound 242, (5-(5-methoxypyridin-2-yl)isoxazol-3-yl)(3-phenylazetidin-1-yl)methanone]
> 45 µM | > 45 µM | O=C(c1cc(-c2ccccc2)on1)N1CCN(c2ccc(F)cc2)CC1 [Compound 283]
> 45 µM | > 45 µM | O=C(c1cc(-c2ccc3c(c2)OCO3)on1)N1CCn2ccnc2C1 [Compound 269]
1.86 µM | 1.36 µM | O=C(c1cc(-c2ccccc2)on1)N1CC(CCl)(CNc2ccccc2)C1 [Compound 215]
> 45 µM | > 45 µM | N#Cc1ccc(-c2cc(C(=O)N3CCC[C@H]3c3ccccc3)no2)cc1 [Compound 404]
> 45 µM | > 45 µM | N#Cc1ccccc1-c1cc(C(=O)Nc2cnn(Cc3cccc(F)c3)c2)no1 [Compound 103]
> 45 µM | > 45 µM | O=C(c1cc(-c2ccco2)on1)N1CC2(COC2)C1 [Compound 247]
> 45 µM | > 45 µM | O=C(Nc1cnn(Cc2cnccc2C(F)(F)F)c1)c1cc(-c2ccncc2)on1 [Compound 202]
> 45 µM | > 45 µM | Cc1cc(C2CCCN2C(=O)c2cc(-c3ccco3)on2)on1 (stereo not shown) [Compound 357]
> 45 µM | > 45 µM | COc1ccc(C2CCCN2C(=O)c2cc(-c3ccc(C(F)(F)F)cc3)on2)cc1 (stereo not shown) [Compound 381]
15 µM | > 45 µM | CNC(=O)c1cc(C(=O)Nc2cnn(Cc3cccc(F)c3)c2)no1 [Compound 87]
0.15 µM | 2.7 µM | CC(C)(C)c1cc(C(=O)Nc2cnn(Cc3ccccc3)c2)no1 [Compound 118, N-(1-benzyl-1H-pyrazol-4-yl)-5-(tert-butyl)isoxazole-3-carboxamide]
> 45 µM | > 45 µM | O=C(c1cc(-c2ccc3c(c2)OCO3)on1)N1CC(Oc2ccccc2)C1 [Compound 208]
> 45 µM | > 45 µM | O=C(c1cc(-c2ccc3c(c2)OCO3)on1)N1CCC1c1ccccc1F (stereo not shown) [Compound 218]
> 45 µM | > 45 µM | O=C(Nc1cnn(Cc2cccc(F)c2)c1)c1cc(-c2ccno2)on1 [Compound 168]
> 45 µM | > 45 µM | COc1ccc(C2CCCN2C(=O)c2cc(-c3ccc(C(F)(F)C(F)(F)F)cc3)on2)cc1 (stereo not shown) [Compound 392]
> 45 µM | > 45 µM | O=C(c1cc(-c2ccc3c(c2)OCO3)on1)N1CCc2ccccc2C1 [Compound 260]
> 45 µM | > 45 µM | N#Cc1ccc(Cn2cc(NC(=O)c3cc(-c4ccccc4)on3)cn2)cc1 [Compound 42]

SMILES | IC50 (human SCD1) | IC50 (human SCD5)
O=C(c1cc(-c2ccc3c(c2)OCO3)on1)N1CCC1c1ccc(F)cc1 (stereo not shown) [Compound 223, [5-(1,3-benzodioxol-5-yl)isoxazol-3-yl]-[2-(4-fluorophenyl)azetidin-1-yl]methanone] | > 45 µM | 3.26 µM
O=C(c1cc(-c2ccccc2)on1)N1CC2(CNC2)C1 [Compound 345] | > 45 µM | > 45 µM
CNC(=O)c1ccccc1-c1cc(C(=O)N2CCC(c3ccccc3)CC2)no1 [Compound 301, N-methyl-2-[3-(4-phenylpiperidine-1-carbonyl)isoxazol-5-yl]benzamide] | > 45 µM | 6.58 µM
